Reference: the NIST ThermoML archive (doi:10.1016/j.fluid.2007.03.021)
Numbers after ± are expanded uncertainties.

Conditions: Liquid

viscosity (298.15 K, 101.33 kPa, Capillary tube (Ostwald / Ubbelohde) method): 1.082 ± 0.009 mPa·s | Normal boiling temperature (Ebulliometric method (Recirculating still)): 78.28 ± 0.05 °C
SMILES: CCO [ethanol]
